Data set [1] relates to MoAb R-3-1. In words: Inhibition ELISA of MoAb R-3-1. The format is binding, mouse. More on the design: concentration or dose not given beside the values. The settings on record: tissue culture supernatant. The protocol: (§1) Inhibition ELISA Protocol
(§2) 1. Use Falcon® Pro-bind™ inununoplates.
(§3) 2. Dilute coating antigen to 1 μg/mL in carbonate-bicarbonate buffer.
(§4) Add 100 μL per well and incubate overnight at 4° C.
(§5) 3. On the same day prepare inhibiting antigen tubes. Aliquot antibodies into glass test tubes. Prepare appropriate antigen concentration in ethanol and add to aliquoted antibody at 10 μL ethanol solution/250 μL antibody.
(§6) Vortex tubes and incubate overnight at 4° C.
(§7) 4. Shake out wells and wash 3× with 200 μL PBS/0.05% TWEEN™ (polyoxyethylene-sorbitol) (v/v) per well.
(§8) 5. Add 200 μL blocking buffer per well (PBS/2% BSA (w/v)).
(§9) Incubate 60 min at room temperature.
(§10) 7. Transfer contents of inhibition tubes to antigen-coated plate, 100 μL per well. Incubate 60 min at 37° C.
(§11) 9. […] Add 100 μL per well and incubate at 37° C. for 60 min.
(§12) 11. […] Add 100 μL per well and incubate in the dark at room temperature. Absorbance can be read at 405 nm at approximately 15-min intervals.
(§13) To further characterize the reactivity of monoclonal antibodies from various clones, inhibition ELISA were performed.

The test system of data set [2] is Mouse polyclonal antibody Rapa-DVS #7. In words: Inhibition ELISA of mouse polyclonal serum Rapa-DVS #7. On the set-up: concentration or dose not given beside the values. The format is binding. The protocol: as §1, §2, §3, §4, §5, §6, §7, §8, §9, §10, §11, §12
In data set [3] the test system is MoAb R-5-3. As to the kind of experiment: Inhibition ELISA of MoAb R-5-3. The format is binding, mouse. The protocol: as §1, §2, §3, §4, §5, §6, §7, §8, §9, §10, §11, §12
Data set [4] concerns MoAb R-4-7. As to the kind of experiment: Inhibition ELISA of MoAb R-4-7. The format is binding, mouse. The protocol: as §1, §2, §3, §4, §5, §6, §7, §8, §9, §10, §11, §12
Data set [5] has as its system MoAb R-6-2. In words: Inhibition ELISA of MoAb R-6-2. The format is binding, mouse. The protocol: as §1, §2, §3, §4, §5, §6, §7, §8, §9, §10, §11, §12
Data set [6] deals with MoAb R-4-1. In words: Inhibition ELISA of MoAb R-4-1. The format is binding, mouse. The protocol: as §1, §2, §3, §4, §5, §6, §7, §8, §9, §10, §11, §12
For data set [7], the system named is MoAb R-2-2. As to the kind of experiment: Inhibition ELISA of MoAb R-2-2. The format is binding, mouse. More on the design: concentration or dose not given beside the values. Conditions: tissue culture supernatant. The protocol:
as §1, §2, §3, §4, §5, §6, §7, §8, §9, §10, §11, §12, §13

Data set [8] deals with Rabbit #1 polyclonal antibody (Rapa-42-DVS-KLH immunogen). As to the kind of experiment: Inhibition ELISA of rabbit #1 polyclonal serum. Conditions: Rapa antigen coated ELISA plate. The format is binding. More on the design: concentration or dose not given beside the values. The protocol:
as §1, §2, §3, §4, §5, §6, §7, §8, §9, §10, §11, §12

For data set [9], the system named is Chicken polyclonal antibody (IgY, Rapa-42-DVS-KLH immunogen). As to the kind of experiment: Inhibition ELISA of chicken IgY prep. The format is binding. More on the design: concentration or dose not given beside the values. The settings on record: Rapa antigen coated ELISA plate. The protocol: as §1, §2, §3, §4, §5, §6, §7, §8, §9, §10, §11, §12
Data set [10] concerns MoAb R-1-1. As to the kind of experiment: Inhibition ELISA of MoAb R-1-1. The settings on record: tissue culture supernatant. The format is binding, mouse. More on the design: concentration or dose not given beside the values. The protocol: as §1, §2, §3, §4, §5, §6, §7, §8, §9, §10, §11, §12, §13
The test system of data set [11] is MoAb R-1-5. In words: Inhibition ELISA of MoAb R-1-5. Conditions: tissue culture supernatant. On the set-up: concentration or dose not given beside the values. The format is binding, mouse. The protocol:
as §1, §2, §3, §4, §5, §6, §7, §8, §9, §10, §11, §12, §13

The test system of data set [12] is MoAb R-6-3. As to the kind of experiment: Inhibition ELISA of MoAb R-6-3. The format is binding, mouse. The protocol: as §1, §2, §3, §4, §5, §6, §7, §8, §9, §10, §11, §12
For data set [13], the system named is Mouse polyclonal antibody Rapa-27 #12 (Rapa-27-ox-DVS-KLH immunogen). As to the kind of experiment: Inhibition ELISA of mouse polyclonal serum Rapa-27 #12. The settings on record: binding to Rapa-27-HSA. More on the design: concentration or dose not given beside the values. The protocol: as §1, §2, §3, §4, §5, §6, §7, §8, §9, §10, §11, §12
Data set [14] has as its system Mouse polyclonal antibody Rapa-DVS #9. As to the kind of experiment: Inhibition ELISA of mouse polyclonal serum Rapa-DVS #9. On the set-up: concentration or dose not given beside the values. The format is binding. The protocol:
as §1, §2, §3, §4, §5, §6, §7, §8, §9, §10, §11, §12

The nature of data set [15]: Relative concentrations of Rapa metabolites in pooled whole blood patient samples (LC/MS). The format is in vivo. Conditions: Rapa = 1. An excerpt: No individual metabolite is found at a concentration greater than 20% of the Rapa parent level.
Data set [16] concerns lymphocytes. As to the kind of experiment: In vitro mixed lymphocyte reaction (MLR) assay, two-way lymphocyte proliferation. The format is cell-based. Conditions: Lymphocyte, 3H-thymidine incorporation. The text has this:
The MLR assay is useful for identifying rapamycin metabolites with biological (immunosupressive) activity and to quantify this activity relative to the immunosuppressive activity of the parent rapamycin molecule.
An example of a two-way lymphocyte proliferation assay procedure useful for this purpose is as follows:
1. Collect blood from two individuals (20 mls each) and isolate lymphocytes using Ficoll-Paque™ (polysucrose and sodium diatrizoate) (Pharmacia Biotech).
2. Count lymphocytes at 1:10 dilution in 2% acetic acid (v/v).
3. Prepare 10 mls of each lymphocyte populations (A+B) at 1×10^6 cells/ml in DMEM/20% FCS (v/v).
4. Set up a 96 well sterile tissue culture plate, flat bottom (Sarstedt, cat # 83.1835). To each well add:
5. Aliquot 100 μl per well lymphocyte population A
6. Aliquot 100 μl per well lymphocyte population B
7. Aliquot 20 μl per well of drug (rapamycin and rapamycin metabolites M1-5) serially diluted 0 to 1000 μg/L in triplicate in DMEM with no supplements.
8. […]
10. […] Wash cells 3× with 1.0-ml sterile distilled water.
Note: All procedures are done using sterile techniques in a biological flow hood.
11. Place filters in Scintilation vials and add 1.5 mls of ScintiSafe Plus™ 50% scintillation fluid (Fisher, cat #SX-25-5).
12. Measure the amount of radioactivity incorporated in the lymphocytes using a beta counter (Micromedic System Inc., TAURUS™ Automatic Liquid Scintillation Counter) for 1.0 minute.
13. Calculate averages and standard deviations for each drug and express results as: [formula]

The conditions of data set [17]: [14C]-rapamycin, healthy male volunteers; cited from earlier work.

We go through three molecules from US6709873B1, “Method for production of antibodies to specific sites of rapamycin” (Isodiagnostika Inc., priority 1997, dated 2004).

Converted amounts (≈) assume the structure as drawn.

Take `C=CC[C@@H]1/C=C(\C)C[C@H](C)C[C@H](OC)[C@H]2O[C@@](O)(C(=O)C(=O)N3CCCC[C@H]3C(=O)O[C@H](/C(C)=C/[C@@H]3CC[C@@H](O)[C@H](OC)C3)[C@H](C)[C@@H](O)CC1=O)[C@H](C)C[C@@H]2OC` [FK, FK-506]: the “Percent inhibition of MoAb R-3-1” value in data set [1] came to 1%. In addition, the “Percent inhibition of mouse polyclonal antibody Rapa-DVS #7” value in [2] was determined as 5.6%. Also, the “Percent inhibition of MoAb R-5-3” value in [3] (tissue culture supernatant) came to 4%. In addition, in [4] (tissue culture supernatant), the “Percent inhibition of MoAb R-4-7” value is on record as 4%. Further, in [5], the “Percent inhibition of MoAb R-6-2” value is recorded as 64%. For the same molecule, the “Percent inhibition of MoAb R-4-1” value in [6] (tissue culture supernatant) turned out to be 8%. In addition, the “Percent inhibition of MoAb R-2-2” value in data set [7] was found to be 16%. For the same molecule, the “Percent inhibition of Rabbit #1 polyclonal antibody” value in data set [8] is 0%. Moreover, the “Percent inhibition of Chicken polyclonal antibody” value in [9] was determined as 0%. In [10], the “Percent inhibition of MoAb R-1-1” value is listed as 43%. In data set [11], the “Percent inhibition of MoAb R-1-5” value is given as 33%. Moreover, the “Percent inhibition of MoAb R-6-3” value in data set [12] is 53%. Moreover, the “Percent inhibition of mouse polyclonal antibody Rapa-27 #12” value in data set [13] came to 11%. In addition, the “Percent inhibition of mouse polyclonal antibody Rapa-DVS #9” value in [14] stood at 13.0%.

With `CO[C@H]1C[C@@H]2CC[C@@H](C)[C@@](O)(O2)C(=O)C(=O)N2CCCC[C@H]2C(=O)O[C@H]([C@H](C)C[C@@H]2CC[C@@H](OCCO)[C@H](OC)C2)CC(=O)[C@H](C)/C=C(\C)[C@@H](O)[C@@H](OC)C(=O)[C@H](C)C[C@H](C)/C=C/C=C/C=C/1C` [RAD], the “Inhibition of MoAb R-5-3 (in words)” value in data set [3] (purified MoAb, increasing concentrations of Rapa or RAD, FIG. 3B) was “inhibited”. In addition, in data set [4], the “Inhibition of MoAb R-4-7 (in words)” value is listed as “inhibited”. The “Percent inhibition of MoAb R-6-2” value in data set [5] is on record as 70%. The “Inhibition of MoAb R-4-1 (in words)” value in [6] (purified MoAb, increasing concentrations of Rapa or RAD, FIG. 3A) is “inhibited”. Further, the “Percent inhibition of MoAb R-6-3” value in [12] stood at 58%.

Consider `CO[C@H]1C[C@@H]2CC[C@@H](C)[C@@](O)(O2)C(=O)C(=O)N2CCCC[C@H]2C(=O)O[C@H]([C@H](C)C[C@@H]2CC[C@@H](O)[C@H](OC)C2)CC(=O)[C@H](C)/C=C(\C)[C@@H](O)[C@@H](OC)C(=O)[C@H](C)C[C@H](C)/C=C/C=C/C=C/1C` [Rapa, Rapamycin], for which, in [15], the “Relative Concentration in whole blood” value was 1. Further, the IC50 in data set [16] was 0.48 ng/mL (≈ 0.525 nM). Moreover, the “share of the total radioactivity in blood” value in data set [17] is given as “approximately 35%”.
